pEC50, pIC50: −log10 of the molar value. Where two headings read alike, the source gives them in different places.
What was measured:
AR W741C = AR W741C (Homo sapiens (Human), UniProt P10275, W742C); experiment: Luciferase Transcriptional Reporter Assay, AR W741C (HepG2); assay type: cell-based
Experimental: HepG2 cells were maintained in EMEM supplemented with 10% FBS. One day before transfection, the media was changed to EMEM with 10% CSS. T-150 flasks were transiently transfected using 120 μL Lipofectamine 2000 (Life Technologies), 30 μg mutant cDNA (expression vector)—mutant cDNA tested were L701H, T877A, W741C and H874Y—and 40 μg 4×ARE-Luciferase (reporter vector) in OptiMEM and the flasks were incubated overnight. Cells were then trypsinized, counted and resuspended at 500,000 cells/mL. For agonist mode, the compounds of Formula (I) were serially diluted and 50 μL of the compound was added per well. 50 μL of the cells were added to each well and incubated for 48 hours. For antagonist mode, a final concentration of 90 pM R1881 was added to the diluted compounds and incubated for 48 hours. The plates were then assayed using SteadyGlo and read on the Envision. Percent Stimulation and Inhibition were determined and analyzed using GraphPad Prism.
F876L agonism was evident at 3 and 10 μM (5%) but zero at 30 μM. The antagonistic (IC50) and agonistic (EC50) values for each of the AR cDNA used in the reporter assays are summarized. All values are calculated relative to the activity of R1881 induced androgen receptor activity (n≥3). Also indicated are the maximal inhibition and extent of induction of androgen dependent signaling (%).

AR in LNCaP cells = AR in LNCaP cells (Homo sapiens (Human), UniProt P10275, T878A); experiment: LNCaP AR Localization Assay; assay type: cell-based; conditions: 4 h, read-out: Inhibition of translocation
Experimental: LNCaP cells were expanded in RPMI 10% FBS in T150 flasks. The cells were dislodged with 0.25% Trypsin, washed in complete media, centrifuged (300 g, 3 min), and the supernatant aspirated. The cells were resuspended in RPMI phenol-red free media with 1% charcoal-stripped serum (CSS) and counted using a ViCELL (Beckman-Coulter). Three million cells in 7 mL of RPMI CSS were seeded into 100 mm dishes and incubated overnight at 37° C. 5% CO2. The following morning, compound dilutions were prepared in RPMI CSS using 50 mM stock solutions and added directly to the cells to obtain the final concentration of 10 μM. The dishes were placed into the incubator for 4 h. After 4 h, cell scrapers were used to dislodge the cells and the media/cell solution was centrifuged, supernatant aspirated, and then washed with Cell Wash Buffer (Protein Simple). The pellets were stored at −80° C. or processed immediately using the Subcellular Protein Fractionation Kit for Cultured Cells (Thermo-Fisher). The fractions obtained from this kit were stored at −80° C. Later, the samples' protein concentration was determined using the BCA Assay Kit (Thermo-Fisher) and the fraction lysates normalized to 0.6 mg/mL. The lysates were run on the Wes Simple Western platform (ProteinSimple). The data was analyzed, normalized to the total AR, and plotted in GraphPad Prism. […]

Chain of AR W741C (P10275 whole entry W742C): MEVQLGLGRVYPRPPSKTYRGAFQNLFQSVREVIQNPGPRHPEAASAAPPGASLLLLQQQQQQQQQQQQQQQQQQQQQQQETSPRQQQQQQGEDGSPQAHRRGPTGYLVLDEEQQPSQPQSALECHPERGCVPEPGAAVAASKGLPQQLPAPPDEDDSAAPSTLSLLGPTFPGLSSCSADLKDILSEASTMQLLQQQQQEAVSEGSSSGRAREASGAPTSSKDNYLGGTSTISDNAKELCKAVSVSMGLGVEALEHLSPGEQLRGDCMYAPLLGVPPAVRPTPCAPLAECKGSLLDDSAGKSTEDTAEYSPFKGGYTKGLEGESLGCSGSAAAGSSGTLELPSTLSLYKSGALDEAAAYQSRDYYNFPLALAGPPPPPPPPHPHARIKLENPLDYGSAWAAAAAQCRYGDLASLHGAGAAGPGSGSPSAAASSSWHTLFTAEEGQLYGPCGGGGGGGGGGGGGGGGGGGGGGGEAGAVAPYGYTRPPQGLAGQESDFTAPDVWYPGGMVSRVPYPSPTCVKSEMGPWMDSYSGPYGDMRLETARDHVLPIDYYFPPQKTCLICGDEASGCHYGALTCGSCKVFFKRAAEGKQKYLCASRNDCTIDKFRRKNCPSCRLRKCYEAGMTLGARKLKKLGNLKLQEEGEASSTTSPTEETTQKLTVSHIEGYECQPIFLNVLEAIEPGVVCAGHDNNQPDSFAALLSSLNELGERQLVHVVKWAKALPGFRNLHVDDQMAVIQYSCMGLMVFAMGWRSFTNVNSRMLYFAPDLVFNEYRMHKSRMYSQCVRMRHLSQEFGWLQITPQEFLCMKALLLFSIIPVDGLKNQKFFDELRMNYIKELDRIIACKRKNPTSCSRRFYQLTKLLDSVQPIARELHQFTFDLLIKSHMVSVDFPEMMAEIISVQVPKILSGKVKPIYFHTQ
Chain of AR in LNCaP cells (P10275 whole entry T878A): as the sequence (P10275 whole entry W742C) above, with C742W, T878A counted along it

pEC50 (AR W741C; HepG2, agonist mode, 48 hours, read-out: Agonism EC50, AR construct W741C): 5.55
Emax (AR W741C; HepG2, agonist mode, relative to R1881, read-out: Agonism % Emax, AR construct W741C): 0%
pIC50 (AR W741C; HepG2, antagonist mode, 90 pM R1881, 48 hours, read-out: Antagonism IC50, AR construct W741C): 4.91
Emax (AR W741C; HepG2, antagonist mode, maximal inhibition, read-out: Antagonism % Emax, AR construct W741C): 85%
inhibition at 10 µM (AR in LNCaP cells): 50%
Compound: N#Cc1ncc(N2C(=O)C3(CCC3)N(c3ccc(OC4CCNCC4)nc3)C2=S)cc1C(F)(F)F [Cpd 43, 5-[5-oxo-8-[6-(4-piperidyloxy)-3-pyridyl]-7-thioxo-6,8-diazaspiro[3.4]octan-6-yl]-3-(trifluoromethyl)pyridine-2-carbonitrile]

Reference: patent publication US10981926B2 (Janssen Pharmaceutica NV, priority 2016, dated 2021)
